Results as given in PubChem BioAssay (NCI).
Several values for one entry are separate records, joined by “and”; a condition that tells them apart may be missing. Equal entries are not always repeated.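 Assay format: 96-well plates, 48-hour exposure. GI50 is the concentration that inhibits growth by half. Definition used: TGI = concentration required for complete inhibition of growth.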

Legend:
Assay in all cases: DTP human tumour cell line panel, 48 h
KM20L2 colon = test system: KM20L2 colon
LXFL 529 NSCLC = test system: LXFL 529 NSCLC
RXF-631 renal = test system: RXF-631 renal
HOP-18 NSCLC = test system: HOP-18 NSCLC
DLD-1 colon = test system: DLD-1 colon
M19-MEL melanoma = test system: M19-MEL melanoma
MDA-MB-435 = test system: MDA-MB-435
MDA-N = test system: MDA-N
DU-145 prostate = test system: DU-145 prostate

SMILES | TGI (KM20L2 colon) | TGI (LXFL 529 NSCLC) | TGI (RXF-631 renal) | TGI (HOP-18 NSCLC) | TGI (DLD-1 colon) | TGI (M19-MEL melanoma) | GI50 (MDA-MB-435) | TGI (MDA-MB-435) | GI50 (MDA-N) | TGI (MDA-N) | GI50 (DU-145 prostate) | TGI (DU-145 prostate) | GI50 (KM20L2 colon)
COc1ccccc1/C=C1\CCC(CCN(C)C)(C2=CCCC2)C1=O (stereo unspecified) | 15.7 µM | 29.6 µM | 29.8 µM | 85.3 µM | 38.5 µM | 31.7 µM |  |  |  |  |  |  | 
CCO/C=C/C(C)C1(C(=O)OCC)CCCCC1=O (stereo unspecified) | > 100 µM | > 100 µM | > 100 µM | > 100 µM | > 100 µM | > 100 µM |  |  |  |  |  |  | 
CC(=O)N[C@@H]1C(O)CN2C(=O)C(=O)O[C@H](C(O)CO)[C@@H]12 (stereo partly specified) | > 100 µM | > 100 µM | > 100 µM | > 100 µM | > 100 µM | > 100 µM |  |  |  |  |  |  | 
O=Cc1ccccc1OCCOc1cc(OCCOc2ccccc2C=O)c(OCCOc2ccccc2C=O)cc1OCCOc1ccccc1C=O | > 100 µM | > 100 µM |  | > 100 µM | > 100 µM | > 100 µM |  |  |  |  |  |  | 
CCCC(=O)Nc1cc(C(=O)N2C[C@@H]3C[C@]34C2=CC(=O)c2[nH]cc(C)c24)n(COC)c1 |  |  |  |  |  |  | 3.19 µM | 19.2 µM and 12.5 µM | 3.66 µM | 19.6 µM and 13.3 µM | 3.18 µM | 27.3 µM and 20.9 µM | 
O=C(Nc1ccc(Cl)cc1Cl)C(=O)C(C(=O)c1ccc2ccccc2c1)C1OC(=O)c2ccccc21 (stereo unspecified) |  | 17.6 µM |  |  | 30.9 µM | 30.3 µM |  |  |  |  |  |  | 
CCOC(=O)C1(Br)C(c2ccccc2)NC(=O)NC1(C)Br (stereo unspecified) | > 100 µM | > 100 µM | > 100 µM | > 100 µM | > 100 µM | > 100 µM | 20.5 µM | 57.3 µM |  |  | 44.5 µM | > 100 µM | 
O=C(O)[C@@H]1[C@H](C(=O)O)[C@H](C(=O)O)C[C@@H]1C(=O)O |  |  |  |  |  |  |  | > 100 µM |  | > 100 µM |  | > 100 µM | 
OCCCOC(c1ccccc1)(c1ccccc1)c1ccccc1 | > 100 µM | > 100 µM | > 100 µM |  | > 100 µM | > 100 µM |  |  |  |  |  |  | 
CC1CC2CC(=O)CC3(C1)C2CCCN3CCCO (stereo unspecified) |  | > 100 µM | > 100 µM | > 100 µM | > 100 µM | > 100 µM |  |  |  |  |  |  | 
COC(=O)C1C(O)CC(c2ccccn2)N(Cc2ccccc2)C1c1ccccn1 (stereo unspecified) | > 100 µM | > 100 µM | > 100 µM | > 100 µM | > 100 µM | > 100 µM |  |  |  |  |  |  | 
CC(=O)Nc1ccc(C(=O)NN2C(=O)C(Cl)C2c2ccc([N+](=O)[O-])cc2)cc1 (stereo unspecified) | > 100 µM | > 100 µM |  |  |  | > 100 µM |  |  |  |  |  |  | 
COc1ccc(-c2cc(=O)c3c(C)cc(C)nc3[nH]2)cc1 |  |  |  |  |  |  | 29.1 µM | > 100 µM | 33.2 µM | > 100 µM |  | > 100 µM | 
COc1cc(CCN)c2c(c1OC)SSSSS2 |  |  |  |  |  |  | 1.63 µM | 3.32 µM | 0.706 µM | 2.21 µM | 0.276 µM | 1.22 µM | 
CC12N=NN(c3ccc([N+](=O)[O-])cc3)C1(O)c1ccccc1C2=O (stereo unspecified) | > 100 µM | > 100 µM |  |  |  | > 100 µM |  |  |  |  |  |  | 
O=C(c1ccc(Cl)cc1)c1ccc(OCCCCCCCCCCOc2ccc(C(=O)c3ccc(Cl)cc3)cc2)cc1 | > 100 µM |  | > 100 µM |  | > 100 µM |  |  |  |  |  |  |  | 
Cn1nc(-c2ccccc2)c(C(=O)/C=C/c2ccc(F)cc2)c(N2CCCCC2)c1=O | 19.2 µM | 20.7 µM | 53.6 µM | 20.6 µM | 16.6 µM | 35.3 µM |  |  |  |  |  |  | 
COc1ccc2c(c1)C(=O)c1c-2n(CCCN=[N+]=[N-])c(=O)c2cc(N(C)C)ccc12 |  |  |  |  |  |  | > 100 µM | > 100 µM |  |  | > 100 µM | > 100 µM | 
OC1c2ccccc2C2(O)C1C(c1ccccc1)C(c1ccccc1)C2(O)c1ccccc1 (stereo unspecified) | 22.5 µM | 54.6 µM |  | 34 µM |  | 38 µM |  |  |  |  |  |  | 
COc1ccc(C2SCC(=O)N2NC(=O)C(O)c2ccccc2)cc1OC (stereo unspecified) |  |  |  |  |  |  | > 100 µM | > 100 µM |  |  | > 100 µM | > 100 µM | 
Cc1ccc(S(=O)(=O)NCCNC2=CC(=O)c3nc4ccccc4c4ccnc2c34)cc1 |  |  |  |  |  |  | 17.7 µM | 41.2 µM |  |  | 19.1 µM | 51.5 µM | 
COc1cc(/C=C\c2ccccc2)cc(OC)c1OC | 3.31 µM | > 68.1 µM | > 87.1 µM | > 100 µM | > 78.2 µM | > 100 µM |  |  |  |  |  |  | 
O=C(/C=C/c1ccccc1)CC1OC(=O)c2ccccc21 (stereo unspecified) | > 100 µM | > 100 µM |  | 78.4 µM | > 100 µM | > 100 µM |  |  |  |  |  |  | 
COc1ccc(N2Cc3cnc(Nc4ccccc4)nc3N([C@@H]3CC[C@@H](O)C3)C2=O)cc1 |  |  |  |  |  |  | 5.98 µM | > 25 µM |  |  | 5.59 µM | > 25 µM | 
O=C([CH-]C(=O)c1ccccc1)c1ccccc1.O=C([CH-]C(=O)c1ccccc1)c1ccccc1.O=C([CH-]C(=O)c1ccccc1)c1ccccc1.[Nd+3].[OH3+] | 48 µM |  |  |  |  |  |  |  |  |  |  |  | 10.9 µM
O=C(Nc1cccc([N+](=O)[O-])c1)C(=O)C(C(=O)c1ccccc1-c1ccccc1)C1OC(=O)c2ccccc21 (stereo unspecified) | 53.7 µM | 27.4 µM | 61.5 µM |  | 42.2 µM | 38.1 µM |  |  |  |  |  |  | 
O=c1[nH]c(=O)n([C@@H]2C[C@H](CO)[C@H](O)C2)cc1/C=C/Br | > 100 µM | > 100 µM | > 100 µM | > 100 µM | > 100 µM | > 100 µM |  |  |  |  |  |  | 
